Results reported in publication PMC6095626, “Screening of the Pathogen Box for inhibitors with dual efficacy against Giardia lamblia and Cryptosporidium parvum” (PLoS Neglected Tropical Diseases, 2018).

Legend:
[1] = system: G. lamblia trophozoites (luciferase expressing, WBC6); test: microbe, parasite or virus in culture; format: cell-based, Giardia lamblia; conditions: initial Pathogen Box screen, single concentration 16 µM, inhibition compared to DMSO wells
Procedure: Trophozoites were harvested by chilling cultures on ice for 30 minutes and plated by adding 150 μL per well at a concentration of 250,000 cells/mL. Metronidazole (Sigma, St. Louis, MO) was used as a control and was serially diluted 1:2 from 40 μM to 0.04 μM and 150 μL was added to the 150 μL of the G. lamblia trophozoites. Plates were covered in plastic low-evaporation lids, sealed in individual anaerobic BD GasPak Bio-Bags (Becton Dickinson, San Jose, CA) and incubated at 37 °C for 24 hours. […] A duplicate plate was concurrently set up and assayed using a MOXI Z Mini Automated Cell Counter Kit (Orflo, Ketchum, ID). Results obtained from the bioluminescence assay and the MOXI counter data were compared to evaluate their correlation to each another. Albendazole (Sigma, St. Louis, MO), an alternative giardiasis therapeutic, was assayed in concentrations from 4 μM to 0.004 μM with only the luciferase expressing G. lamblia cells. […]

[2] = system: C. parvum (UGA1 Nluc expressing strain in HCT-8 cells); test: microbe, parasite or virus in culture; format: cell-based, Cryptosporidium parvum; conditions: initial Pathogen Box screen, single concentration 10 µM, inhibition compared to DMSO wells
Procedure: Growth inhibition and EC50 determination assays were performed using UGA1 Nluc expressing C. parvum strain in HCT-8 cells (ATCC^©, Manassas, VA) as previously described. HCT-8 cells were inoculated onto 96-well plates and allowed to grow for 48 hours to 90–100% confluence and then treated with single concentration (10 μM) or serially diluted compounds prior to oocyst infection. C. parvum oocysts were incubated for 10 minutes in 10% bleach at room temperature and then washed with DPBS. […] The cell monolayers were lysed for 1 hour before adding Nano-Glo® luciferase reagent (Promega, Madison, WI), and measuring relative luminescence units (RLU) in an EnVision Plate Reader (Perkin Elmer, Waltham, MA). Several parameters, including reproducibility and reliability, were previously evaluated to optimize this assay for low and high-throughput (HTP) screening of small molecule compounds against C. parvum. EC50 values were calculated using Prism 7 software (GraphPad Software, San Diego, CA).
C. parvum screening against the Pathogen Box compounds was performed as previously described starting at a concentration of 10 μM [23].

Compound: COc1ccc(C2CC(c3cccs3)=NN2C(=O)c2ccco2)cc1OC (stereo not shown) [MMV019234]
- Giardia (16 uM) Mean % inhibition [1]: 20%
- Crypto (10 uM) Mean % inhibition [2]: X* (Mean or standard deviation are negative but not significantly different from the control to be a growth promoter)

Compound: CCC(NC(=O)c1ccccc1NC(=O)c1ccc(C)cc1)C(=O)OC (stereo not shown) [MMV019551]
- Giardia (16 uM) Mean % inhibition [1]: 5.53%
- Crypto (10 uM) Mean % inhibition [2]: 23%

Compound: CCN(CC)S(=O)(=O)c1ccc(Cl)c(C(=O)Nc2ccc3nc(C)sc3c2)c1 [MMV019721]
- Giardia (16 uM) Mean % inhibition [1]: 15%
- Crypto (10 uM) Mean % inhibition [2]: 82%

Compound: Cc1ccc(S(=O)(=O)N2CCN(C(=O)c3cc(-c4ccccc4)n[nH]3)CC2)cc1 [MMV019742]
- Giardia (16 uM) Mean % inhibition [1]: X* (Mean or standard deviation are negative but not significantly different from the control to be a growth promoter)
- Crypto (10 uM) Mean % inhibition [2]: X* (Mean or standard deviation are negative but not significantly different from the control to be a growth promoter)

Compound: CCOc1ccccc1C(=O)Nc1cccc(-c2nc3ncccn3c2C)c1 [MMV019790]
- Giardia (16 uM) Mean % inhibition [1]: X* (Mean or standard deviation are negative but not significantly different from the control to be a growth promoter)
- Crypto (10 uM) Mean % inhibition [2]: X* (Mean or standard deviation are negative but not significantly different from the control to be a growth promoter)

Compound: Cc1ccc2cc(C3NC(=O)c4ccccc4N3)c(Cl)nc2c1 (stereo not shown) [MMV019807]
- Giardia (16 uM) Mean % inhibition [1]: 24%
- Crypto (10 uM) Mean % inhibition [2]: 79%

Compound: O=C(Nc1ccnc(-c2cccnc2)n1)c1cc(C(F)(F)F)cc(C(F)(F)F)c1 [MMV019838]
- Giardia (16 uM) Mean % inhibition [1]: 16%
- Crypto (10 uM) Mean % inhibition [2]: 71%

Compound: Cc1nn(C)cc1C(C)Nc1nncc(-c2ccc(C(F)(F)F)cc2)n1 (stereo not shown) [MMV019993]
- Giardia (16 uM) Mean % inhibition [1]: 22%
- Crypto (10 uM) Mean % inhibition [2]: X* (Mean or standard deviation are negative but not significantly different from the control to be a growth promoter)

Compound: COc1cccc(CC(=O)N2CCC(n3c(C)nc4ccc(F)cc43)CC2)c1 [MMV020081]
- Giardia (16 uM) Mean % inhibition [1]: X* (Mean or standard deviation are negative but not significantly different from the control to be a growth promoter)
- Crypto (10 uM) Mean % inhibition [2]: X* (Mean or standard deviation are negative but not significantly different from the control to be a growth promoter)

Compound: CC1CC1C(=O)NC1CCN(CC2(c3ccccc3)CCCCC2)CC1 (stereo not shown) [MMV020120]
- Giardia (16 uM) Mean % inhibition [1]: 2.27%
- Crypto (10 uM) Mean % inhibition [2]: 66%

Compound: CNC(=O)c1cc(S(=O)(=O)N2CCN(c3ccccn3)CC2)cs1 [MMV020136]
- Giardia (16 uM) Mean % inhibition [1]: X* (Mean or standard deviation are negative but not significantly different from the control to be a growth promoter)
- Crypto (10 uM) Mean % inhibition [2]: X* (Mean or standard deviation are negative but not significantly different from the control to be a growth promoter)

Compound: Cc1cc(C(=O)Nc2ccc(-c3ccccc3)cc2)no1 [MMV020152]
- Giardia (16 uM) Mean % inhibition [1]: 43%
- Crypto (10 uM) Mean % inhibition [2]: X* (Mean or standard deviation are negative but not significantly different from the control to be a growth promoter)

Compound: CC(C)NCC(=O)Nc1cccc(C(=O)Nc2cccc(C(F)(F)F)c2)c1 [MMV020165]
- Giardia (16 uM) Mean % inhibition [1]: 81%
- Crypto (10 uM) Mean % inhibition [2]: 45%

Compound: Cc1ccc(NC(=O)c2cc(S(=O)(=O)NC(C)(C)C)ccc2C)nc1 [MMV020289]
- Giardia (16 uM) Mean % inhibition [1]: 26%
- Crypto (10 uM) Mean % inhibition [2]: X* (Mean or standard deviation are negative but not significantly different from the control to be a growth promoter)

Compound: CC(C(=O)N1CCCC1)N1CCN(S(=O)(=O)c2ccc(C(C)(C)C)cc2)CC1 (stereo not shown) [MMV020291]
- Giardia (16 uM) Mean % inhibition [1]: 13%
- Crypto (10 uM) Mean % inhibition [2]: 61%

Compound: Cc1nnc(NC(=O)c2cn(-c3ccccc3)nc2-c2ccccc2C)o1 [MMV020320]
- Giardia (16 uM) Mean % inhibition [1]: X* (Mean or standard deviation are negative but not significantly different from the control to be a growth promoter)
- Crypto (10 uM) Mean % inhibition [2]: 91%

Compound: COc1ccccc1C(C)NCC(=O)Nc1cc(C(F)(F)F)ccc1Cl (stereo not shown) [MMV020321]
- Giardia (16 uM) Mean % inhibition [1]: X* (Mean or standard deviation are negative but not significantly different from the control to be a growth promoter)
- Crypto (10 uM) Mean % inhibition [2]: 83%

Compound: CC1CCCN(C(=O)C(C)Nc2cc(Cl)ccc2N2CCOCC2)C1 (stereo not shown) [MMV020388]
- Giardia (16 uM) Mean % inhibition [1]: 62%
- Crypto (10 uM) Mean % inhibition [2]: X* (Mean or standard deviation are negative but not significantly different from the control to be a growth promoter)

Compound: CC(C)C(C(=O)Nc1ccc(S(=O)(=O)N(C)C)cc1)c1ccc(Cl)cc1 (stereo not shown) [MMV020391]
- Giardia (16 uM) Mean % inhibition [1]: 8%
- Crypto (10 uM) Mean % inhibition [2]: 67%

Compound: Cc1ccc(Oc2ccc(NC(=O)CNc3ccccc3N3CCCC3=O)cc2)cc1 [MMV020512]
- Giardia (16 uM) Mean % inhibition [1]: X* (Mean or standard deviation are negative but not significantly different from the control to be a growth promoter)
- Crypto (10 uM) Mean % inhibition [2]: 80%

Compound: COc1ccccc1CNC(=O)c1cc(C2CC2)nc2c1cnn2C(C)C [MMV020517]
- Giardia (16 uM) Mean % inhibition [1]: X* (Mean or standard deviation are negative but not significantly different from the control to be a growth promoter)
- Crypto (10 uM) Mean % inhibition [2]: X* (Mean or standard deviation are negative but not significantly different from the control to be a growth promoter)

Compound: Cc1cc2ccccc2n1CC(=O)N1CC(C(=O)N2CCCCC2)Oc2ccccc21 (stereo not shown) [MMV020520]
- Giardia (16 uM) Mean % inhibition [1]: 6.36%
- Crypto (10 uM) Mean % inhibition [2]: 68%

Compound: O=C(NC1CC1)c1ccc(N2CCOc3ccc(Cl)cc32)s1 [MMV020537]
- Giardia (16 uM) Mean % inhibition [1]: 4.66%
- Crypto (10 uM) Mean % inhibition [2]: 55%

Compound: CC(C)C(NC(=O)Cc1cccc2ccccc12)C(=O)Nc1cccc(C#N)c1 (stereo not shown) [MMV020591]
- Giardia (16 uM) Mean % inhibition [1]: 16%
- Crypto (10 uM) Mean % inhibition [2]: 55%

Compound: Cc1noc(C)c1C(=O)N1CCCC(c2[nH]c3c(C)cccc3c2-c2ccncc2)C1 (stereo not shown) [MMV020623]
- Giardia (16 uM) Mean % inhibition [1]: X* (Mean or standard deviation are negative but not significantly different from the control to be a growth promoter)
- Crypto (10 uM) Mean % inhibition [2]: 43%

Compound: COc1ccc(-c2cncc3ccc(C(=O)NCCCn4ccnc4)nc23)cc1 [MMV020670]
- Giardia (16 uM) Mean % inhibition [1]: 19%
- Crypto (10 uM) Mean % inhibition [2]: 42%

Compound: COc1ccc(Cl)cc1NC(=O)CN(C)C(=O)c1cnn(-c2ccccc2)n1 [MMV020710]
- Giardia (16 uM) Mean % inhibition [1]: 7.5%
- Crypto (10 uM) Mean % inhibition [2]: 43%

Compound: CC(C)(C)c1cc(C(=O)Nc2cccnc2)cc(C(=O)Nc2cccnc2)c1 [MMV020982]
- Giardia (16 uM) Mean % inhibition [1]: 10%
- Crypto (10 uM) Mean % inhibition [2]: 67%

Compound: c1ccc(-c2nc(NC3CCCCC3)cc(C3CC3)n2)nc1 [MMV021013]
- Giardia (16 uM) Mean % inhibition [1]: 65%
- Crypto (10 uM) Mean % inhibition [2]: 92%

Compound: CO/C=C(\C(=O)OC)c1ccccc1Oc1cc(Oc2ccccc2C#N)ncn1 [MMV021057]
- Giardia (16 uM) Mean % inhibition [1]: 3.75%
- Crypto (10 uM) Mean % inhibition [2]: 51%

Compound: Cc1cc(NCC(C)C)c2[nH]nc(-c3ccccc3)c2n1 [MMV021375]
- Giardia (16 uM) Mean % inhibition [1]: 62%
- Crypto (10 uM) Mean % inhibition [2]: X* (Mean or standard deviation are negative but not significantly different from the control to be a growth promoter)

Compound: Cc1cc(NCCc2ccccc2)nc(NC(=N)Nc2ccc(Cl)cc2)n1 [MMV021660]
- Giardia (16 uM) Mean % inhibition [1]: 90%
- Crypto (10 uM) Mean % inhibition [2]: X* (Mean or standard deviation are negative but not significantly different from the control to be a growth promoter)

Compound: CN1CCC(NCc2cccc(-c3ccc(S(=O)(=O)NCc4ccccc4)cc3)c2)CC1 [MMV022029]
- Giardia (16 uM) Mean % inhibition [1]: 89%
- Crypto (10 uM) Mean % inhibition [2]: X* (Mean or standard deviation are negative but not significantly different from the control to be a growth promoter)

Compound: CCN(CC)CCCN1CCN(C(=O)c2cccc(-c3noc(C(F)(F)F)n3)c2)CC1 [MMV022236]
- Giardia (16 uM) Mean % inhibition [1]: 8%
- Crypto (10 uM) Mean % inhibition [2]: 38%

Compound: c1ccc2c(c1)CN(CC1CC1)CC1(CCN(Cc3c[nH]c4cnccc34)CC1)O2 [MMV023183]
- Giardia (16 uM) Mean % inhibition [1]: 72%
- Crypto (10 uM) Mean % inhibition [2]: X* (Mean or standard deviation are negative but not significantly different from the control to be a growth promoter)

Compound: Cc1nc(-c2cccc(NCc3ccccc3)c2)[nH]c1C [MMV023227]
- Giardia (16 uM) Mean % inhibition [1]: 58%
- Crypto (10 uM) Mean % inhibition [2]: 25%

Compound: Nc1nccc2ccc(-c3ccc4nccn4c3)cc12 [MMV023233]
- Giardia (16 uM) Mean % inhibition [1]: 85%
- Crypto (10 uM) Mean % inhibition [2]: X* (Mean or standard deviation are negative but not significantly different from the control to be a growth promoter)

Compound: Nc1ncc(-c2cn[nH]c2)cc1-c1nc2cc(Cl)cnc2[nH]1 [MMV023370]
- Giardia (16 uM) Mean % inhibition [1]: 38%
- Crypto (10 uM) Mean % inhibition [2]: X* (Mean or standard deviation are negative but not significantly different from the control to be a growth promoter)
